In one assay the target is T1, human P2X3 receptor (Homo sapiens, UniProt P56373).
T1 construct: expressed in transfected cells; host or cells: HEK293 human embryonic kidney cells (HEK-hP2X3)
T1 sequence (P56373 1-397): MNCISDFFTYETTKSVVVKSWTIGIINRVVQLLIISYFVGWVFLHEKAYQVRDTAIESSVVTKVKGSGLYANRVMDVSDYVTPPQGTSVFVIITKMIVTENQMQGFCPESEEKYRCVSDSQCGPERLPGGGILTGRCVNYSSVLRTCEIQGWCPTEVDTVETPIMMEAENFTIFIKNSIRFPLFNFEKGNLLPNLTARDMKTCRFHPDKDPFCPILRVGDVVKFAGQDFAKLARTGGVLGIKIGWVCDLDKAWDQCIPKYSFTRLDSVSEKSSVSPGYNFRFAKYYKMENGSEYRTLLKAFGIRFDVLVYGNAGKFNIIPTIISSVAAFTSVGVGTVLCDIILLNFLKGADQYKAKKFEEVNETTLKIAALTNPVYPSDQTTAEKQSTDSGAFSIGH
Briefly: FlexStation calcium fluorescence assay, HEK293 cells stably transfected with human P2X3 (homomeric P2X3 channels). Type of assay: cell-based. The settings on record: HEK-hP2X3 cells, Calcium 6 dye, agonist 1 μM α,β-meATP, 20 minutes incubation; read-out: Average pIC50 P2X3 (converted). As to the method: (§1) 1321N1 human astrocytoma and HEK293 human embryonic kidney cells were stably transfected with human P2X2 and P2X3 receptor subunits to form heteromeric P2X2/3 channels and passaged in flasks. Additionally, HEK293 cells were stably transfected with human P2X3 receptor subunits to form homomeric P2X3 channels.
(§2) Approximately 24 hours before the FlexStation calcium fluorescence experiment, cells were released from their flasks, centrifuged and re-suspended in nutrient medium. The cells were aliquoted into black-wall, clear-bottom 96 well plates at a density of 25,000 cells per well and incubated overnight in a humidified, CO2-enriched (5%) atmosphere at 37° C. […]
(§3) After 20 minutes incubation at room temperature and protected from light, the assay plates were loaded into the FlexStation microplate reader and baseline fluorescence measured with an excitation wavelength of 485 nm and emission wavelength readings centered at 525 nm (515 nm cut off).
(§4) The agonist was dispensed by the FlexStation during fluorescence measurement to construct agonist activation and antagonist inhibition curves. […] Peak fluorescence was measured and curves generated using a four parameter nonlinear regression equation. […]

In the next assay the target is T2, human P2X2/3 channels (Homo sapiens, UniProt P56373+Q9UBL9).
T2 construct: expressed in transfected cells; host or cells: 1321N1 human astrocytoma cells (1321N1-hP2X2/3)
T2 sequence (P56373 1-397): T1 sequence (P56373 1-397)
T2 sequence (Q9UBL9 1-471): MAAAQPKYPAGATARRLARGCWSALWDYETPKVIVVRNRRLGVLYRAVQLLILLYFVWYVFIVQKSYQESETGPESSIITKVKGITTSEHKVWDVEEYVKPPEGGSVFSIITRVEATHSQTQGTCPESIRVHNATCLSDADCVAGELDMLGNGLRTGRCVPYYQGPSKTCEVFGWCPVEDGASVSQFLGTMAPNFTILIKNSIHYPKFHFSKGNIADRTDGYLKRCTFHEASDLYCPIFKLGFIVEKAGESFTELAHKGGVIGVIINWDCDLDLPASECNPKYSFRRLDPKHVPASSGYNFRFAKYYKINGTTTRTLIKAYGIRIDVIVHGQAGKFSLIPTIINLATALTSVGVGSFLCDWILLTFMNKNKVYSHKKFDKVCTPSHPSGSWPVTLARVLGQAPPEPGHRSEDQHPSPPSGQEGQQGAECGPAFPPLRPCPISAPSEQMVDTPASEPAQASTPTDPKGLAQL
Briefly: FlexStation calcium fluorescence assay, 1321N1 cells stably transfected with human P2X2 and P2X3 (heteromeric P2X2/3 channels). The settings on record: 1321N1-hP2X2/3 cells, Fluo-4 dye, agonist ATP, 20 minutes incubation; read-out: Average pIC50 P2X2/3 (converted). The format is cell-based. As to the method:
as §1, §2, §3, §4

`CCOc1cc(Oc2cnc(N)nc2N)n(C(C)C)n1` [Compound 1]: the IC50 at human P2X3 receptor was 6.92 µM; on human P2X2/3 channels, more than 10 µM.
Take `COc1cc(Oc2cnc(N)nc2N)n(C(C)C)n1` [Compound 2]: the IC50 at human P2X3 receptor was 0.288 µM; on human P2X2/3 channels, 1.95 µM.

(Values after patent publication US11591315B2, “Substituted pyrazole-pyrimidines, variants thereof, and uses therefore” (Afferent Pharmaceuticals, Inc., priority 2016, dated 2023).)
